Holding throughout (assay type): cell-based, human
Test [1] relates to H460 cells. Description: Colony-forming assay, H460. To be noted: for return to proliferation (colony formation): H460, IC90 doses, already after 24 h of incubation; for number of colonies: H460, 120 h treatment at IC90 doses, about 250 cells cultured two weeks in fresh medium. Here is the method: (§1) The ability of cells to return to proliferation after UAs treatment was measured by a colony-forming assay. After drug treatment, 250 HCT116 and H460 cells were harvested and seeded in a new 6-well plate containing fresh medium without the drug and incubated for two weeks. Untreated cells were used as controls. After two weeks, colonies were fixed with 80% ethanol, stained with crystal violet, counted, and photos were taken.

The test system of test [2] is active caspase-3 in H460 cells. Description: Active caspase-3 flow cytometry, H460. As to conditions: H460, IC90 doses, 120 h. Here is the method: (§2) Caspase-3 activity was determined using Alexa Fluor 647-conjugated anti-active caspase-3 antibody (BD Biosciences, San Diego, CA, USA) according to the manufacturer’s instructions. Briefly, HCT116 and H460 cells (1 × 10^6) were trypsinized, pelleted, washed twice with ice-cold PBS and fixed in Fixation Buffer for 20 min on ice. After fixation, cells were rinsed twice with Perm Wash Buffer, stained with Alexa Fluor 647-conjugated anti-active caspase-3 antibody for 30 min, rinsed with Perm Wash Buffer and analyzed by flow cytometry with FACS Accuri C6 (BD, San Jose, CA, USA).

Test [3] deals with H460 cells. Description: Annexin V/PI dual staining, H460. As to conditions: H460, IC90 doses; for necrotic cells (stained only with PI): during the incubation time. Here is the method: Annexin V–FITC binding was performed with an Annexin-V Fluos Staining kit (BD Biosciences, San Jose, CA, USA) according to manufacturer’s protocol. Briefly, after drug treatment, HCT116 and H460 cells (1 × 10^6) were trypsinized, washed twice with ice-cold PBS, pelleted and resuspended in 100 µL of binding buffer containing Annexin-V–FITC and PI. Cells were incubated for 15 min at room temperature in the dark, then diluted with 400 µL of binding buffer and analyzed by flow cytometry with FACS Accuri C6 (BD, San Jose, CA, USA). Cells with low FITC and PI fluorescence were considered viable. Cells that presented high FITC fluorescence but low PI fluorescence were regarded as early apoptotic. Late apoptotic cells presented high FITC and PI fluorescence. Necrotic cells had low FITC fluorescence and high PI fluorescence.

Test [4] concerns HCT116 cells. Description: Mitochondrial transmembrane potential (JC-1), HCT116. To be noted: HCT116, IC90 doses, 120 h. The protocol: Changes in the mitochondrial membrane potential (ΔΨm) were analyzed by flow cytometry using 5,5′,6,6′-tetrachloro-1,1′,3,3′-tetraethylbenzimidazolyl-carbocyanine iodide, JC-1 (BD Biosciences, San Jose, CA, USA) according to manufacturer’s specification. Briefly, after treatment, HCT116 and H460 cells (1 × 10^6) were trypsinized, pelleted, resuspended in media and stained with JC-1 for 15 min at 37 °C. After staining, cells were washed twice with assay buffer and analyzed by flow cytometry with FACS Accuri C6 (BD, San Jose, CA, USA). The loss of ΔΨm was monitored based on the decrease in JC-1 red fluorescence concurrent with the increase in green fluorescence.

For test [5], the system named is MYC gene expression in H460 cells. Description: RT-PCR MYC expression in H460. To be noted: H460, IC90 doses; for relative mRNA level of MYC gene: with time of incubation up to 120 h. The protocol: HCT116, H460, CCD 841 CoN and MRC-5 cells after treatment with UAs were collected, washed twice with ice-cold PBS and resuspended in […] of PBS. mRNA was isolated using High Pure RNA Isolation Kit according to the manufacturer’s instructions (Roche, Basel, Switzerland). Briefly, cells were lysed in lysis-binding buffer and transferred to a filter tube. Contaminating DNA was removed by 15 min incubation of the filter tube with DNase I solution. The filter tube was washed once with buffer I and twice with buffer II, and after centrifugation, total RNA was eluted using the elution buffer. RNA concentration was determined by NanoDrop One (Thermo Scientific); 1 µg of RNA was reverse transcribed using Transcriptor First Strand cDNA Synthesis Kit according to the manufacturer’s instructions (Roche) in 20 µL of reaction containing 1 µg of RNA, […] anchored-oligo(dT)18Primer, 8 mM MgCl2, 20 U of Protector RNase Inhibitor, deoxynucleotide mix (1 mM each) and 22 U of Transcriptor Reverse Transcriptase. The reverse transcription reaction was carried out for 30 min at 55 °C and stopped by heating to 85 °C for 5 min and placing on ice. The cDNA solution was stored at −20 °C until use. Real-time polymerase chain reaction (PCR) was performed on 2 µL of cDNA using 0.2 µM forward and reverse primers on LightCycler® 480 using LightCycler® 480 SYBR Green I Master according to manufacturer’s instructions (Roche). Primers were designed using BLAST website. Their efficiency was checked, and they were ordered from Genomed (Warsaw, Poland). The sequences of primers were as follows: MYC set 1 forward primer, […]; MYC set 1 reverse primer, […]; MYC set 2 forward primer, […]; MYC set 2 reverse primer, […]; KRAS forward primer, […]; KRAS reverse primer, […]; reference gene, GAPDH forward primer ACCCACTCCTCCACCTTTG; and GAPDH reverse primer, CTCTTGTGCTCTTGCTGGG. Cycling conditions were as follows: 1 cycle for 7 min at 95 °C (preincubation), 45 cycles of amplification: 10 s at 95 °C (denaturation), 20 s at 62 °C (annealing), 30 s at 72 °C (extension), 1 cycle for obtaining melting curve and 1 cycle for 10 s at 40 °C (cooling). The results were standardized to the reference gene GADPH. The relative expression level of MYC and KRAS was quantified using comparative method […]. The results were obtained from three independent experiments, each of which was analyzed at least twice.

For test [6], the system named is active caspase-3 in HCT116 cells. Description: Active caspase-3 flow cytometry, HCT116. To be noted: HCT116, IC90 doses, 120 h. Here is the method: as §2
Background: A flow cytometer gives signals particle by particle.

Test [7] deals with cleaved PARP in H460 cells. Description: PARP cleavage flow cytometry, H460. To be noted: H460, IC90 doses. Here is the method: PARP cleavage was determined using Alexa Fluor 647-conjugated anti-cleaved PARP antibody (BD Biosciences, San Diego, CA, USA) according to the manufacturer’s instructions. Briefly, HCT116 and H460 cells (1 × 10^6) were trypsinized, pelleted, washed twice with ice-cold PBS and fixed in Fixation Buffer for 20 min on ice. After fixation, cells were rinsed twice with Perm Wash Buffer, stained with Alexa Fluor 647-conjugated anti-cleaved PARP antibody for 30 min, rinsed with Perm Wash Buffer and analyzed by flow cytometry with FACS Accuri C6 (BD, San Jose, CA, USA).

Test [8] has as its system HCT116 cells. Description: Colony-forming assay, HCT116. As to conditions: for return to proliferation (colony formation): HCT116, IC90 doses, already after 24 h of incubation; for number of colonies: HCT116, 120 h treatment at IC90 doses, about 250 cells cultured two weeks in fresh medium. Here is the method: as §1

Where “and” joins values, the source holds several entries; their conditions need not be identical. Identical values can stand only once. Some results are limits rather than exact numbers.

Take `Cc1ccc([N+](=O)[O-])c2c(NCCCN(C)CCCNc3ccc4ncn5c6ccccc6c(=O)c3c45)c3ccccc3nc12` [Compound C-2053]: the “return to proliferation (colony formation)” value in the test on H460 cells [1] and with HCT116 cells [8] was “completely blocked their return to proliferation” each time. Also, the “cells with active caspase-3” value in test [2] worked out at 54.1%; in test [6], 20.9%. Moreover, in the test with H460 cells [3] (120 h), the “annexin V positive cells (early and late apoptotic)” value (“annexin V positive cells” for short) was determined as 53.1%. The “necrotic cells (stained only with PI)” value with H460 cells [3] is listed as at most 10%. Further, the “cells with decreased mitochondrial transmembrane potential (ΔΨm)” value in the test with HCT116 cells [4] amounted to 23.5%. Besides, in test [5], the “drop of MYC mRNA level” value worked out at 50%. Further, the “relative mRNA level of MYC gene” value in test [5] is on record as “around 0.55”. The “cells with cleaved PARP” value was 47.8% in test [7] (72 h) and 43.3% in test [7] (120 h).
Turning to `CN(CCCNc1c2ccccc2nc2cccc([N+](=O)[O-])c12)CCCNc1ccc2ncn3c4ccccc4c(=O)c1c23` [Compound C-2028], the number of colonies result with H460 cells [1] was “eight”; in the test with HCT116 cells [8] it was “one”. Further, the “cells with active caspase-3” value is 44.9% in test [2]; 34.8% and 40% in test [6]. Moreover, in the test on H460 cells [3] (120 h), the “annexin V positive cells” value is on record as 48.7%. Also, the “necrotic cells (stained only with PI)” value in the test on H460 cells [3] is given as at most 10%. Besides, the “cells with decreased mitochondrial transmembrane potential (ΔΨm)” value with HCT116 cells [4] was 34.3% and 30%. Further, in test [5], the “relative mRNA level of MYC gene” value is listed as “stayed at the similar level”. Besides, the “cells with cleaved PARP” value in test [7] (120 h) is recorded as “about 20%”.
Turning to `Cc1ccc([N+](=O)[O-])c2c(NCCCN(C)CCCNc3ccc4ncn5c6ccc(O)cc6c(=O)c3c45)c3ccccc3nc12` [Compound C-2045], the “return to proliferation (colony formation)” value in the test on H460 cells [1] and with HCT116 cells [8] was “completely blocked their return to proliferation” each time. The “cells with active caspase-3” value in test [2] was 51.6%; in test [6], 39.3% and 40%. In addition, the “annexin V positive cells” value with H460 cells [3] (120 h) came to 49.4%. Further, in the test on H460 cells [3] (120 h), the “necrotic cells (A−PI+)” value was about 12%. The “cells with decreased mitochondrial transmembrane potential (ΔΨm)” value in the test with HCT116 cells [4] is 30.9% and 30%. In test [5], the “drop of MYC mRNA level” value stood at 50%. For the same compound, in test [5], the “relative mRNA level of MYC gene” value was “around 0.55”. In addition, the “cells with cleaved PARP” value turned out to be 53.9% in test [7] (72 h) and 28.2% in test [7] (120 h).
Regarding `O=c1c2ccccc2n2cnc3ccc(NCCCN4CCN(CCCNc5c6ccccc6nc6cccc([N+](=O)[O-])c56)CC4)c1c32` [Compound C-2041], the values for the number of colonies with H460 cells [1] and in the test with HCT116 cells [8] were 77 colonies and 7 colonies, respectively. Further, the “cells with active caspase-3” value in test [2] was 35.5%; in test [6], 39.5% and 40%. In addition, the “annexin V positive cells” value with H460 cells [3] (120 h) is 35.9%. Moreover, the “necrotic cells (stained only with PI)” value in the test with H460 cells [3] is at most 10%. Moreover, the “cells with decreased mitochondrial transmembrane potential (ΔΨm)” value with HCT116 cells [4] was “around 70%”; with HCT116 cells [4] (listed as C-1041) it was 63.0%. In addition, the “relative mRNA level of MYC gene” value in test [5] worked out at 1.65. Moreover, the “cells with cleaved PARP” value in test [7] (120 h) is recorded as “about 20%”.
